Reference: patent US20210253651A1, “METHOD FOR PRODUCING ORGANIC COMPOUND-ENCAPSULATING FERRITIN” (Ajinomoto Co., Inc., priority 2018, published 2021)
Read-outs that look alike come from different tables or passages of the source.

Columns and labels:
[1] = molecular target: T1, FTH ferritin (Homo sapiens, UniProt P02794); experiment: one-step process incorporation of small molecule agents into FTH ferritin; type: physicochemical; details: for Incorporation efficiency (wt %) / Number of agent incorporated: 60 min; for Optimal pH in reaction: pH of buffer giving the largest amount of incorporation within ferritin
T1 construct: made in house; host or cells: Escherichia coli BL21 (DE3), plasmid pET20-FTH
Method: All of the reactions were performed in 0.1 mL volume. […] The absorbances were measured using spectrophotometer (DU-800, Beckman Coulter Inc.) for these solutions, and the concentration of contained protein was determined using the protein assay CBB solution (Nacalai Tesque, Inc.) as well as bovine albumin as a standard. Absorbances at 280 nm and 480 nm were measured for Rhodamine B and Congo Red. […] Then, after the absorbances were calibrated based on the absorbances that were derived from the proteins and presumed by the amount of contained protein quantified using the protein assay CBB solution, the concentrations of small molecule agents were determined based on the calibration curves obtained by the absorbances of the molecules. […] As a result, the one-step process enabled incorporating also the small molecule agents with different physical properties such as molecular weight and pKa simply and easily.

[2] = molecular target: T1, FTH ferritin; experiment: ratio of amounts incorporated, one-step vs disassembly-reassembly process; type: physicochemical
Method: As a control, some of small molecule agents listed in Table 1 was incorporated into ferritin also at the disassembly-reassembly process. […] Then, 10 μL of 1M Tris-HCl buffer (pH 9.0) was added for neutralization, and the resulting solution was left to stand for 15 minutes at room temperature. After the standing, 0.5 mL of water was added. After the resulting solution was centrifuged (at 15,000 rpm for one minute), the supernatant was injected into the desalting column PD-10 (Sephadex G-25 filled product, GE Healthcare Inc.) equilibrated with 10 mM Tris-HCl buffer (pH 8) to separate the protein from a reagent that was not encapsulated. […]
The absorbances were measured using spectrophotometer (DU-800, Beckman Coulter Inc.) for these solutions, and the concentration of contained protein was determined using the protein assay CBB solution (Nacalai Tesque, Inc.) as well as bovine albumin as a standard. Absorbances at 280 nm and 480 nm were measured for Rhodamine B and Congo Red. […] Then, after the absorbances were calibrated based on the absorbances that were derived from the proteins and presumed by the amount of contained protein quantified using the protein assay CBB solution, the concentrations of small molecule agents were determined based on the calibration curves obtained by the absorbances of the molecules. […]

[3] = pKa of the organic compound; type: physicochemical; details: average of plural pKa values
Text: The pKa of the organic compound can be determined by a neutralization titration method (Kagaku Binran Kiso-hen I and II (Handbook of Chemistry, basic I and II) (Ver. 4) edited by The Chemical Society of Japan, Maruzen Publishing, 1993). […] When the organic compound has a single pKa value, the value is employed as the pKa of the organic compound.

[4] = cited from earlier work
[5] = cited from earlier work; remark: listed apart in the source
[6] = molecular target: T1, FTH ferritin; experiment: one-step process incorporation of uranine into FTH ferritin; type: physicochemical
Method: All reactions were carried out in 1 mL volume. After the standing and centrifuging (at 15,000 rpm for one minute), the supernatant was injected into the desalting column PD-10 (Sephadex G-25 filled product, GE Healthcare Inc.) equilibrated with 10 mM Tris-HCl buffer (pH 8) to separate the protein from a reagent that was not encapsulated, for obtaining 3.5 mL of sample solution. The absorbance at 430 nm was measured using spectrophotometer (DU-800, Beckman Coulter Inc.) for the resulting solution in order to determine the concentration of uranine. The concentration of contained protein was determined using the protein assay CBB solution (Nacalai Tesque, Inc.) as well as bovine albumin as a standard.

[7] = molecular target: T1, FTH ferritin; experiment: disassembly-reassembly process incorporation of uranine into FTH ferritin; type: physicochemical
Method: As a control, uranine was incorporated into ferritin in the disassembly-reassembly process. […] Then, 10 μL of 1 M Tris-HCl buffer (pH 9.0) was added for neutralization, and the resulting solution was left to stand for 15 minutes at room temperature. After the standing, 0.5 mL of water was added. After the resulting solution was centrifuged (at 15,000 rpm for one minute), the supernatant was injected into the desalting column PD-10 (Sephadex G-25 filled product, GE Healthcare Inc.) equilibrated with 10 mM Tris-HCl buffer (pH 8) to separate the protein from a reagent that was not encapsulated. Whole amount (3.5 mL) of the resulting solution was concentrated to 0.1 mL by centrifugal ultrafiltration using Vivaspin 20-100K (GE Healthcare Inc.).

T1 sequence (P02794 whole entry): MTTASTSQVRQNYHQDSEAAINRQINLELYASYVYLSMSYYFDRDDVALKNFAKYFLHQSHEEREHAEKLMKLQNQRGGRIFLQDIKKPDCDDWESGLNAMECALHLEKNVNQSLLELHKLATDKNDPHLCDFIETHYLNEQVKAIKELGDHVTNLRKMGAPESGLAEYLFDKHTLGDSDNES

## CN(C)C(=N)NC(=N)N [Metformin]
[1]; pH 4, 40° C.
  Incorporation efficiency (wt %): 0.0 wt %
  Number of agent incorporated: 0.0
[1]; pH 6, 40° C.
  Incorporation efficiency (wt %): 0.0 wt %
  Number of agent incorporated: 0.2
[1]; pH 8, 20° C.
  Incorporation efficiency (wt %): 1.9 wt %
  Number of agent incorporated: 78.0
[1]; pH 8, 40° C.
  Incorporation efficiency (wt %): 0.1 wt %
  Number of agent incorporated: 2.9
[1]; pH 8, 60° C.
  Incorporation efficiency (wt %): 1.3 wt %
  Number of agent incorporated: 53.5
[1]; pH 10, 40° C.
  Incorporation efficiency (wt %): 0.0 wt %
  Number of agent incorporated: 1.8
[1]
  Optimal pH in reaction: 8
[2]
  ratio of amount incorporated at the one-step process to that at the disassembly-reassembly process: 2.5 fold

## CC(C)(C)NCC(O)c1cc(O)cc(O)c1 (stereo not shown) [Terbutaline]
[3]
  pKa: 9.31
[1]; pH 4, 40° C.
  Incorporation efficiency (wt %): 0.0 wt %
  Number of agent incorporated: 0.0
[1]; pH 6, 40° C.
  Incorporation efficiency (wt %): 0.9 wt %
  Number of agent incorporated: 19.5
[1]; pH 8, 40° C.
  Incorporation efficiency (wt %): 0.9 wt %
  Number of agent incorporated: 21.0
[1]; pH 10, 20° C.
  Incorporation efficiency (wt %): 1.4 wt %
  Number of agent incorporated: 32.8
[1]; pH 10, 40° C.
  Incorporation efficiency (wt %): 1.2 wt %
  Number of agent incorporated: 27.1
[1]; pH 10, 60° C.
  Incorporation efficiency (wt %): 5.3 wt %
  Number of agent incorporated: 126.8
[1]
  Optimal pH in reaction: 10
[4]; second pKa value
  pKa: 9.76
[4]; single or first pKa value
  pKa: 8.86
[5]
  logP: 0.9

## O=C([O-])c1ccccc1-c1c2ccc(=O)cc-2oc2cc([O-])ccc12.[Na+].[Na+] [Uranine]
[3]
  pKa (average): 4.4
[6]
  amount of encapsulated uranine, one-step vs disassembly-reassembly process: 2.7 fold
[6]; 30° C., pH 3
  Uranine: 71.0 µM
  Uranine/FTH ferritin: 99.2
[6]; 30° C., pH 5
  Uranine: 135.6 µM
  Uranine/FTH ferritin: 183.6
[6]; 30° C., pH 7
  Uranine: 68.5 µM
  Uranine/FTH ferritin: 90.0
[6]; 60° C., pH 3
  Uranine: 198.9 µM
  Uranine/FTH ferritin: 267.5
[6]; 60° C., pH 5
  Uranine: 201.4 µM
  Uranine/FTH ferritin: 265.3
[6]; 60° C., pH 7
  Uranine: 93.4 µM
  Uranine/FTH ferritin: 137.7
[6]; presumed from pH=2.6+0.6 pKa relation
  optimum value of the reaction pH presumed from average pKa: ~5
[7]; uranine in reaction 1 mM
  Uranine: 864.5 µM
  Uranine/FTH ferritin: 36.7
[7]; uranine in reaction 5 mM
  Uranine: 1186.3 µM
  Uranine/FTH ferritin: 47.2
[7]; uranine in reaction 10 mM
  Uranine: 1382.1 µM
  Uranine/FTH ferritin: 52.6
[7]; uranine in reaction 50 mM
  Uranine: 1764.2 µM
  Uranine/FTH ferritin: 72.5
[7]; uranine in reaction 100 mM
  Uranine: 2106.1 µM
  Uranine/FTH ferritin: 100.2
[7]; uranine in reaction 300 mM
  Uranine: 2405.1 µM
  Uranine/FTH ferritin: 90.8
[4]; second pKa value
  pKa: 4.4
[4]; single or first pKa value
  pKa: 2.2
[4]; third printed pKa value
  pKa: 6.7
